Data taken from patent publication US20220257774A1, “AROMATIC AMINE AR AHD BET TARGETING PROTEIN DEGRADATION CHIMERA COMPOUND AND USE” (HINOVA PHARMACEUTICALS INC., priority 2019, published 2022).
Where two headings read alike, the source gives them in different places.

Tests used:
Assay type in all cases: cell-based
BRD4 = target: T1, BRD4 (Homo sapiens, UniProt O60885); assay: Down-regulation/degradation of BRD4 determined by Western blot in CWR22RV1 cells; conditions: concentration 100 nM, 24 h
T1 construct: CWR22RV1 cells were subcultured in cell culture media; endogenous in cells; host or cells: CWR22RV1 cells
Experimental: (§1) The Down-Regulation on the Protein Expression of Androgen Receptors AR and Brd4 Determined by Western Blot CWR22RV1 cells (National Collection of Authenticated Cell Cultures. TCHu100) FBS (Gibco, Cat. No. 10099-141) 0.01M PBS (Biosharp. Cat. No. 162262) RIPM1640 (Hyclone, Cat. No. 308090.01) Penicillin-Streptomycin (Hyclone. Cat. No. SV30010) DMSO (Sigma. Cat. No. D5879) Centrifuge tube, 15 ml (Excell Bio. Cat. No. CS015-0001) Cell culture plate (Excell Bio. Cat. No. CS016-0128) 6-well cell culture cluster (Corning, Cat. No. 3516) RIPA lysate buffer (Beyotime, Cat. No. P0013B) Protein loading buffer (Beyotime, Cat. No. P0015L) CA protein assay kit (Beyotime, Cat. No. P0012) SDS-PAGE gel preparation kit (Chengdu Baihe Technology Co., Ltd. Cat. No. PG112) Anti-β-tubulin mouse mAb (Zen Bioscience, Cat. No. 200608) Androgen Receptor ([…]) XP Rabbit mAb (CST. Cat. No. 5153) Anti-cMyc(D3N8F) Rabbit mAb (CST. Cat. No. 13987) Anti-BRD4(E2A7X) rabbit mAb (CST, Cat. No. 13440) Peroxidase Affinipure(HRP) Goat Anti-Mouse IgG (Zen Bioscience, Cat. No. 511103) Peroxidase Affinipure(HRP) Goat Anti-Rabbit IgG (Zen Bioscience, Cat. No. 511203) TBST (Biosharp. Cat. No. B[…]) ECL chemiluminescence kit (Beyotime, Cat. No. […]1 cells were subcultured in cell culture media, and then the cells in good growth condition were seeded in a 6-well plate at 2 ml/well (1×10^6 cells/well), and cultured overnight in a 37° C., 5% CO2 cell incubator. 2) The drug was prepared as a 10 mM stock solution with dimethyl sulfoxide (DMSO). […] The plate was gently tapped to thoroughly mix. In addition, the experiment included negative control wells (containing equal amount of DMSO) and positive control wells. 3) After culturing 24 hi, the cells were lysed with RIPA cell lysate, and the protein was extracted. […] The first antibody (Androgen Receptor ([…]) XP Rabbit mAb. Anti-cMyc(D3N8F) Rabbit mAb, Anti-BRD4(E2A7X) rabbit mAb and Anti-β-Tubulin Mouse mAb) was added and incubated overnight at 4° C. The membrane was rinsed with TBST solution three times, 10 min for each time. The secondary antibody (horseradish peroxidase labeled goat anti mouse IgG) was added and incubated at room temperature for 2 h, and then the membrane was washed with TBST solution three times, 10 m for each time. Finally. ECL chemiluminescence solution was added, and then photos were taken with automatic chemiluminescence instrument to collect pictures for analysis.

22RV1 cells = assay: Inhibition of the proliferation of drug-resistant prostate cancer cell 22RV1 (CCK-8); conditions: 22RV1 cells (enzalutamide-resistant), same method
In short: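 22RV1 cells, 1000/well in RPMI1640 with 10% FBS, treated in duplicate with 9-point 3-fold dilutions from 10 μM (0.1% DMSO final). After 6 days at 37 °C, CCK-8 added for 1 h and OD450 read. IC50 from dose-response inhibition fit.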

Androgen receptor (AR) = assay: Down-regulation/degradation of AR determined by Western blot in CWR22RV1 cells; conditions: concentration 100 nM, 24 h
Experimental: as §1

LNCaP/AR cells = assay: Inhibition of the proliferation of LNCap/AR cells (CCK-8); conditions: read-out: LNCap/AR IC50
In short: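 LNCaP/AR cells (1000/well, RPMI1640 + 10% FBS) were treated for 6 days at 37 °C with 9-point 3-fold dilutions from 10 μM final, 0.1% DMSO, in duplicate. Viability was read by CCK-8 absorbance at 450 nm after 1 h, and IC50 came from a dose-response-inhibition fit.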

[1] = LNCaP/AR cells, 6 days culture, CCK-8
[2] = 144 h, LNCaP/AR cells, 6 days culture, CCK-8

Row | Compound | IC50 (22RV1 cells) [nM] | IC50 (LNCaP/AR cells; [1]) [nM] | IC50 (22RV1 cells; Homo sapiens) [nM] | IC50 (LNCaP/AR cells; [2]) [nM] | BRD4 (% degradation) (BRD4) | AR (% degradation) (Androgen receptor (AR)) | IC50 (LNCaP/AR cells; LNCaP/AR, 144 h) [nM]
1 | Cc1ccc(-c2c(C)noc2C)cc1N(C[C@H]1CC[C@H](CNc2ccc3c(c2)C(=O)N(C2CCC(=O)NC2=O)C3=O)CC1)c1ccc(C2(C#N)CC2)cc1 (stereo partly drawn) [Compound 149] |  |  | < 100 | < 100 | A (>80% of the target protein was degraded) | A (>80% of the target protein was degraded) | 
2 | Cc1ccc(-c2c(C)noc2C)cc1N(CCCCNc1cc2c(cc1F)C(=O)N(C1CCC(=O)NC1=O)C2)c1ccc(C2(C#N)CC2)cc1 (stereo not drawn) [Compound 43, 1-(4-((5-(3,5-Dimethylisoxazol-4-yl)-2-methylphenyl)(4-((2-(2,6-dioxopiperidin-3-yl)-6-fluoro-1-oxoisoindolin-5-yl)amino)butyl)amino)phenyl)cyclopropane-1-nitrile] |  |  | < 100 | 501 to 2000 | C (49%-20% of the target protein was degraded) | B (79%-50% of the target protein was degraded) | 
3 | Cc1ccc(-c2c(C)noc2C)cc1N(CCCCCOCC(=O)N[C@H](C(=O)N1C[C@H](O)C[C@H]1C(=O)N[C@@H](C)c1ccc(-c2scnc2C)cc1)C(C)(C)C)c1ccc(-n2ccnc2)c(Br)c1 [Compound 10, (2S,4R)-1-((S)-2-(2-((5-((3-bromo-4-(1H-imidazol-1-yl)phenyl)(5-(3,5-dimethylisoxazol-4-yl)-2-methylphenyl)amino)n-pentyl)oxy)acetylamino)-3,3-dimethylbutyryl)-4-hydroxy-N—((S)-1-(4-(4-methylthiazol-5-yl)phenyl)ethyl)pyrrolidinyl-2-formamide] |  |  |  | < 100 | B (79%-50% of the target protein was degraded) | B (79%-50% of the target protein was degraded) | 
4 | Cc1ccc(-c2c(C)noc2C)cc1N(c1ccc(C2(C#N)CC2)cc1)C1CN(c2ccc3c(c2)C(=O)N(C2CCC(=O)NC2=O)C3=O)C1 (stereo not drawn) [Compound 35, 1-(4-((5-(3,5-Dimethylisoxazol-4-yl)-2-methylphenyl)(1-(2-(2,6-dioxopiperidin-3-yl)-1,3-dioxoisoindolin-5-yl)azetidin-3-yl)amino)phenyl)cyclopropane-1-nitrile] |  |  | > 2000 | > 2000 |  |  | 
5 | Cc1ccc(-c2c(C)noc2C)cc1N(c1ccc(C2(C#N)CC2)cc1)C1CN(CC2CCN(c3ccc4c(c3)C(=O)N(C3CCC(=O)NC3=O)C4=O)CC2)C1 (stereo not drawn) [Compound 34, 1-(4-((5-(3,5-Dimethylisoxazol-4-yl)-2-methylphenyl) (1-((1-(2-(2,6-dioxopiperidin-3-yl)-1,3-dioxoisoindolin-5-yl)piperidin-4-yl)methyl)azetidin-3-yl)amino)phenyl)cyclopropane-1-nitrile] |  |  | > 2000 | > 2000 |  |  | 
6 | CC(=O)O[C@@H]1C[C@@H](C(=O)N[C@@H](C)c2ccc(-c3scnc3C)cc2)N(C(=O)[C@@H](NC(=O)COCCCCCN(c2ccc(C#N)c(Cl)c2)c2cc(-c3c(C)n[nH]c3C)ccc2C)C(C)(C)C)C1 [Compound 45] |  |  | > 2000 |  |  |  | 501 to 2000
7 | Cc1ccc(-c2c(C)noc2C)cc1N(CCCCNc1cc2c(cc1F)C(=O)N(C1CCC(=O)NC1=O)C2=O)c1ccc(C2(C#N)CC2)cc1 (stereo not drawn) [Compound 40] |  |  | 101 to 500 | 501 to 2000 |  |  | 
8 | Cc1ccc(-c2c(C)noc2C)cc1N(CC1CC(Nc2cc3c(cc2F)CN(C2CCC(=O)NC2=O)C3=O)C1)c1ccc(C2(C#N)CC2)cc1 (stereo not drawn) [Compound 38] |  |  | 501 to 2000 | > 2000 |  |  | 

Now from value to molecule, other results behind:

Row | IC50 (22RV1 cells) [nM] | IC50 (LNCaP/AR cells; [1]) [nM] | IC50 (22RV1 cells; Homo sapiens) [nM] | IC50 (LNCaP/AR cells; [2]) [nM] | Compound | BRD4 (% degradation) (BRD4) | AR (% degradation) (Androgen receptor (AR)) | IC50 (LNCaP/AR cells; LNCaP/AR, 144 h) [nM]
9 | < 100 | < 100 |  |  | Cc1ccc(-c2c(C)noc2C)cc1N(C[C@H]1CC[C@H](CNc2cc3c(cc2F)C(=O)N(C2CCC(=O)NC2=O)C3=O)CC1)c1ccc(C#N)c(Cl)c1 (stereo partly drawn) [Compound 131] | A (>80% of the target protein was degraded) | C (49%-20% of the target protein was degraded) | 
10 |  |  | < 100 | 101 to 500 | Cc1ccc(-c2c(C)noc2C)cc1N(C[C@H]1CC[C@H](CNc2cc3c(cc2F)C(=O)N(C2CCC(=O)NC2=O)C3)CC1)c1ccc(C2(C#N)CC2)cc1 (stereo partly drawn) [Compound 169] | B (79%-50% of the target protein was degraded) | C (49%-20% of the target protein was degraded) | 
11 |  |  | < 100 | < 100 | Cc1ccc(-c2c(C)noc2C)cc1N(C[C@H]1CC[C@H](CNc2ccc3c(c2)C(=O)N(C2CCC(=O)NC2=O)C3)CC1)c1ccc(C2(C#N)CC2)cc1 (stereo partly drawn) [Compound 193] | B (79%-50% of the target protein was degraded) | D (<20% of the target protein was degraded) | 
12 |  |  |  | < 100 | Cc1ccc(-c2c(C)noc2C)cc1N(CCCCCNc1ccc2c(c1)CN(C1CCC(=O)NC1=O)C2=O)c1ccc(C2(C#N)CC2)cc1 (stereo not drawn) [Compound 145, 1-(4-((5-(3,5-dimethylisoxazol-4-yl)-2-methylphenyl)(5-((2-(2,6-dioxopiperidin-3)-1-isoindolinone-5-yl))amino)pentyl)amino)phenylcyclopropanecarbonitrile] | C (49%-20% of the target protein was degraded) | C (49%-20% of the target protein was degraded) | 
13 |  |  |  | < 100 | Cc1ccc(-c2c(C)noc2C)cc1N(CCCCCNc1ccc2c(c1)C(=O)N(C1CCC(=O)NC1=O)C2=O)c1ccc(C2(C#N)CC2)cc1 (stereo not drawn) [Compound 147, 1-(4-((5-(3,5-Dimethylisoxazol-4-yl)-2-methylphenyl)(5-((2-(2,6-dioxopiperidin-3)-1,3-dicarbonylisoindolin-5))amino)pentyl)amino)phenylcyclopropanecarbonitrile] | A (>80% of the target protein was degraded) | C (49%-20% of the target protein was degraded) | 
14 |  |  | < 100 | 101 to 500 | Cc1ccc(-c2c(C)noc2C)cc1N(c1ccc(C2(C#N)CC2)cc1)C1CN(CC2CN(c3ccc4c(c3)C(=O)N(C3CCC(=O)NC3=O)C4=O)C2)C1 (stereo not drawn) [Compound 67, 1-(4-((5-(3,5-dimethylisoxazol-4-yl)-2-methylphenyl)(1-((1-(2-(2,6-dioxopiperidin-3-yl)-1,3-dioxoisoindolin-5-yl)azetidin-3-yl)methyl)azetidine-3-yl)amino)phenyl)cyclopropane-1-carbonitrile] |  |  | 
15 | > 2000 | < 100 |  |  | Cc1ccc(-c2c(C)noc2C)cc1N(CC(C)OC1CN(c2cc3c(cc2F)CN(C2CCC(=O)NC2=O)C3=O)C1)c1ccc(C2(C#N)CC2)cc1 (stereo not drawn) [Compound 177] |  |  | 
16 |  |  | 101 to 500 | 501 to 2000 | Cc1ccc(-c2c(C)noc2C)cc1N(CC(C)OC1CN(c2cc3c(cc2F)C(=O)N(C2CCC(=O)NC2=O)C3=O)C1)c1ccc(C2(C#N)CC2)cc1 (stereo not drawn) [Compound 173, 1-(4-((5-(3,5-dimethylisoxazol-4-yl)-2-methylphenyl)(2-((1-(2-(2,6-dioxopiperidin-3-yl)-6-fluoro-1,3-dioxoisoindolin-5-yl)azacyclobutane-3-yl)oxy)propyl)amino)phenyl)cyclopropane-1-nitrile] |  |  | 
